From publication PMC6855212, “Antibacterial activity of synthetic 1,3‐bis(aryloxy)propan‐2‐amines against Gram‐positive bacteria” (MicrobiologyOpen, 2019)
In brackets after ≈: the same amount, converted by molar mass.

Key:
[1] = test system: Streptococcus pyogenes ATCC 19615; experiment: MIC, broth microdilution; assay type: cell-based; conditions: Streptococcus pyogenes, ATCC19615; 24 hr, 35°C; read-out: MIC Streptococcus pyogenes ATCC 19615
Procedure: (§1) The antibacterial activity of the compounds was evaluated using the broth microdilution method in 96‐well microplates according to the Clinical and Laboratory Standards Institute protocol (CLSI, 2017). First, synthetic compounds were diluted in Mueller Hinton broth (MHB; Oxoid, Thermo Scientific, UK) to concentrations ranging from 20 to 2.5 μg/ml. The same volume of a bacterial suspension containing 10^5 CFU/ml was added to each of the previous solutions, resulting in final compound concentrations from 10 to 1.25 μg/ml. […] All conditions were tested in triplicate and the results shown are representative of three independent assays.

[2] = test system: Staphylococcus aureus ATCC 29212; experiment: MIC, broth microdilution; assay type: cell-based; conditions: Staphylococcus aureus, ATCC29212; 24 hr, 35°C; read-out: MIC Staphylococcus aureus ATCC 29212
Procedure: as §1

[3] = test system: Enterococcus faecalis ATCC 29213; experiment: MIC, broth microdilution; assay type: cell-based; conditions: Enterococcus faecalis, ATCC29213; 24 hr, 35°C; — = no activity up to 10 μg/ml; read-out: MIC Enterococcus faecalis ATCC 29213
Procedure: as §1

S. aureus = test system: S. aureus; design: method as in CLSI, 2017; conditions: antimicrobials in clinical use; ref CLSI, 2017; cited from earlier work
E. faecalis = test system: E. faecalis; design: method as in CLSI, 2017; conditions: antimicrobials in clinical use; ref CLSI, 2017; cited from earlier work
MRSA = test system: MRSA; design: method as in Baltch, Ritz, Bopp, Michelsen, & Smith, 2007; conditions: antimicrobials used in the clinic; ref Baltch, Ritz, Bopp, Michelsen, & Smith, 2007; cited from earlier work

Structure (SMILES) | MIC S. aureus (S. aureus) | MIC E. faecalis (E. faecalis) | also measured
OC(COc1ccc(Cl)c(Cl)c1)COc1ccc(Cl)c(Cl)c1 [CPD29, 1,3‐Bis(3,4‐dichlorophenoxy)propan‐2‐ol] | – | – | melting point: 103.4 to 105.7 °C
CS(=O)(=O)OC(COc1ccc(Cl)c(Cl)c1)COc1ccc(Cl)c(Cl)c1 [CPD30, 1,3‐Bis(3,4‐dichlorophenoxy)propan‐2‐yl methanesulfonate] | – | – | melting point: 83.7 to 84.4 °C
[N-]=[N+]=NC(COc1ccc(Cl)c(Cl)c1)COc1ccc(Cl)c(Cl)c1 [CPD31, 1,3‐Bis(3,4‐dichlorophenoxy)propan‐2‐yl azide] | – | – | melting point: 95.6 to 96.3 °C
Clc1ccc(OCC(COc2ccc(Cl)cc2)N2CCOCC2)cc1 [CPD34, 4‐(1,3‐Bis(4‐chlorophenoxy)propan‐2‐yl)morpholine] | – | – | melting point: 62.6 to 64.8 °C
Cc1ccc(S(=O)(=O)OC(COc2ccc(Cl)cc2)COc2ccc(Cl)cc2)cc1 [CPD39, 1,3‐bis(4‐chlorophenoxy)propan‐2‐yl 4‐methylbenzenesulfonate] | – | – | melting point: 145.3 to 147.2 °C
CC1(C)S[C@@H]2[C@H](NC(=O)Cc3ccccc3)C(=O)N2[C@H]1C(=O)O [Penicillin G, reference compound] | – | – | MIC [1]: 0.24 µM (≈ 0.0803 µg/mL); MIC [2]: 0.06 µM (≈ 0.0201 µg/mL); MIC [3]: 5.98 µM (≈ 2 µg/mL)
NCC[C@H](O)C(=O)N[C@@H]1C[C@H](N)[C@@H](O[C@H]2O[C@H](CN)[C@@H](O)[C@H](O)[C@H]2O)[C@H](O)[C@H]1O[C@H]1O[C@H](CO)[C@@H](O)[C@H](N)[C@H]1O [amikacin] | 1 to 4 µg/mL | 64 to 256 µg/mL | –
CC1(C)S[C@@H]2[C@H](NC(=O)C(C(=O)O)c3ccccc3)C(=O)N2[C@H]1C(=O)O (stereo partly shown) [carbenicillin] | 2 to 8 µg/mL | 16 to 64 µg/mL | –
CC(C)(O/N=C(\C(=O)N[C@@H]1C(=O)N2C(C(=O)[O-])=C(C[n+]3ccccc3)CS[C@H]12)c1csc(N)n1)C(=O)O [ceftazidime] | 4 to 16 µg/mL | – | –
O=C(N[C@H](CO)[C@H](O)c1ccc([N+](=O)[O-])cc1)C(Cl)Cl [chloramphenicol] | 2 to 16 µg/mL | 4 to 16 µg/mL | –
CCCCCCCCCC(=O)N[C@@H](Cc1c[nH]c2ccccc12)C(=O)N[C@H](CC(N)=O)C(=O)N[C@@H](CC(=O)O)C(=O)N[C@@H]1C(=O)NCC(=O)N[C@@H](CCCN)C(=O)N[C@@H](CC(=O)O)C(=O)N[C@H](C)C(=O)N[C@@H](CC(=O)O)C(=O)NCC(=O)N[C@H](CO)C(=O)N[C@@H]([C@H](C)CC(=O)O)C(=O)N[C@@H](CC(=O)c2ccccc2N)C(=O)O[C@@H]1C [daptomycin] | – | – | MIC MRSA (MRSA): 0.5 µg/mL (≈ 0.309 µM)
CNC(C)C1CCC(N)C(OC2C(N)CC(N)C(OC3OCC(C)(O)C(NC)C3O)C2O)O1 (stereo not shown) [gentamicin] | – | – | MIC MRSA (MRSA): 128 µg/mL (≈ 268 µM)
NC[C@H]1O[C@H](O[C@H]2[C@H](O)[C@@H](O[C@H]3O[C@H](CO)[C@@H](O)[C@H](N)[C@H]3O)[C@H](N)C[C@@H]2N)[C@H](O)[C@@H](O)[C@@H]1O [kanamycin] | 1 to 4 µg/mL | 16 to 64 µg/mL | –
CC(=O)NC[C@H]1CN(c2ccc(N3CCOCC3)c(F)c2)C(=O)O1 [linezolid] | 1 to 4 µg/mL | 1 to 4 µg/mL | –
COc1cccc(OC)c1C(=O)N[C@@H]1C(=O)N2[C@@H]1SC(C)(C)[C@@H]2C(=O)O [methicillin] | – | > 16 µg/mL | –
Cc1onc(-c2ccccc2)c1C(=O)N[C@@H]1C(=O)N2[C@@H]1SC(C)(C)[C@@H]2C(=O)O [oxacillin] | – | – | MIC MRSA (MRSA): 16 µg/mL (≈ 39.9 µM)
CCN1CCN(C(=O)N[C@@H](C(=O)N[C@@H]2C(=O)N3[C@@H]2SC(C)(C)[C@@H]3C(=O)O)c2ccccc2)C(=O)C1=O [piperacillin] | 1 to 4 µg/mL | 1 to 4 µg/mL | –
